This is an account of results in article PMC7011973 (Journal of Enzyme Inhibition and Medicinal Chemistry, 2017).

One assay has as its target BsuCA1 (BsCA1). The format is biochemical, Brucella suis. Particulars: read-out: KI (nM) ^* / BsuCA1^b.
A further assay concerns the target BsuCA2 (BsCA2). The format is biochemical, Brucella suis. Particulars: read-out: KI (nM) ^* / BsuCA2^b.

As to `CCOC(=O)CCc1c(C)nn(-c2ccncc2S(N)(=O)=O)c1C` [compound 16, 16], the Ki came out at 41 nM at BsuCA1 (BsCA1) and 706 nM on BsuCA2 (BsCA2).
Taken in the same sequence, the figures for `NS(=O)(=O)c1cnccc1N1CCN(Cc2ccccc2)CC1` [compound 10, 10] were 34 nM and 97 nM.
For `NS(=O)(=O)c1cnccc1N1CCC(Cc2ccccc2)CC1` [compound 12, 12], the Ki on BsuCA1 (BsCA1) was determined as 40 nM.
With `CCc1cc(CC)n(-c2ccncc2S(N)(=O)=O)n1` [compound 17, 17], the Ki at BsuCA2 (BsCA2) was found to be 420 nM.
With `Cc1nn(-c2ccncc2S(N)(=O)=O)c(C)c1C` [compound 14, 14], the Ki at BsuCA1 (BsCA1) was found to be 45 nM.
With `Cc1cc(C)n(-c2ccncc2S(N)(=O)=O)n1` [compound 13, 13], the Ki was 38 nM at BsuCA1 (BsCA1) and 780 nM on BsuCA2 (BsCA2).
Regarding `CCCCc1c(C)nn(-c2ccncc2S(N)(=O)=O)c1C` [compound 15, 15], on BsuCA1 (BsCA1), the Ki turned out to be 47 nM.
In the case of `NS(=O)(=O)c1cnccc1N1CCN(Cc2ccc3c(c2)OCO3)CC1` [compound 11, 11], the results for the Ki on BsuCA1 (BsCA1) and at BsuCA2 (BsCA2) were 36 nM and 336 nM, respectively.
